Experimental data reported in article PMC11581908 (Nature chemical biology, 2024).

What was measured:
FBXO22 = biological target: T1, FBXO22 (Homo sapiens, UniProt Q8NEZ5); experiment: cysteine-directed ABPP in cells; format: cell-based
T1 sequence (Q8NEZ5 1-403): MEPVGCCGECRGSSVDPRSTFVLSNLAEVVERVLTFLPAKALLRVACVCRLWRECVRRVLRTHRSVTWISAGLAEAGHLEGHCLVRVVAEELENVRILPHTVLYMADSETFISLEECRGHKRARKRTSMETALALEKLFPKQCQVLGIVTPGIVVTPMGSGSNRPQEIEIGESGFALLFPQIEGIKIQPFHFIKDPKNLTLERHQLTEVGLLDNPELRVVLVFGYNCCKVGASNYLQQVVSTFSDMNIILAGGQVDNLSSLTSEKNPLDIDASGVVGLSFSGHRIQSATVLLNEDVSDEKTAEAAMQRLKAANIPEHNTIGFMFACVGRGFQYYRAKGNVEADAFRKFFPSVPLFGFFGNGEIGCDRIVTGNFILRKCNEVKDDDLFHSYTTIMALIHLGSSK

FKBP12 = FKBP12 (Homo sapiens, UniProt P62942); format: cell-based
Sequence of FKBP12 (P62942 2-108): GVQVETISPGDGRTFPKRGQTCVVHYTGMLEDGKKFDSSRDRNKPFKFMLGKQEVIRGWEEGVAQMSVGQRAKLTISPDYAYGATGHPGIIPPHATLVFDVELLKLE

% of C228 blocked at 2 μM (FBXO22): ~ 20 % of C228 blocked at 2 μM
EC50 (FKBP12): 1960 nM
SMILES: CCC(C)(C)C(=O)C(=O)N1CCCC[C@H]1C(=O)O[C@H](CCc1ccc(OC)c(OC)c1)c1cccc(OCC(=O)NCCCOCCOCCOCCCN(C(=O)CCl)C(C(=O)NCc2ccccc2)c2nc3ccccc3s2)c1 (some centres unmarked) [compound 1, 22-SLF]
